Patent US12310963B2, “Pyrazole derivatives and use thereof” (Tarapeutics Science Inc., priority 2019, dated 2025)

Tests used:
BaF3 = assay: Growth of parental BaF3 cells, Cell Titer-Glo, 72 h; type: cell-based; settings: Mus musculus
Excerpt: (§1) In this example, mouse primary B cell BaF3 (purchased from ATCC, U.S.A.) was used. In addition, in this example, mouse BaF3-tel-PDGFRα (stably expressing PDGFRα kinase), mouse BaF3-tel-PDGFRβ (stably expressing PDGFRβ kinase), BaF3-P210 (stably expressing ABL kinase), BaF3-P210-T315I (stably expressing ABL-T315I kinase), BaF3-FL-BRAF-V600E (stably expressing BRAF-V600E kinase), BaF3-TEL-cKIT (stably expressing cKIT kinase), BaF3-TEL-VEGFR2 (stably expressing VEGFR2 kinase), BaF3-TEL-FGFR2 (stably expressing FGFR2 kinase) were also used. The above-mentioned cell trains were all constructed in our laboratory by the method as follows. The sequences of human BCR-ABL (P210 or P210/T315I mutated), full-length BRAF-V600E, cKIT, VEGFR2, FGFR2, PDGFRα, PDGFRβ kinase region were amplified respectively via PCR, and inserted respectively into a MSCV-Puro vector (purchased from Clontech) having a N-terminal TEL fragment and/or NPM fragment and/or TPR fragment, and stably transferred into mouse BaF3 cells by the retroviral method, and the growth factor IL-3 was removed. Eventually, cell lines which are transferred into proteins depending on PDGFRα, PDGFRβ were obtained.
(§2) In this example, solutions of the test compound at different concentrations (0.000508 μM, 0.00152 μM, 0.00457 μM, 0.0137 μM, 0.0411 μM, 0.123 μM, 0.370 μM, 1.11 μM, 3.33 μM, 10 μM) were added to the above cells. The cells were incubated for 72 hours.

[1] = test system: BaF3-tel-PDGFRβ (stably expressing PDGFRβ kinase); assay: Growth of BaF3-tel-PDGFRβ cells, Cell Titer-Glo, 72 h; type: cell-based, mouse
Excerpt: as §1, §2

[2] = test system: BaF3-TEL-cKIT (stably expressing cKIT kinase); assay: Growth of BaF3-TEL-cKIT cells, Cell Titer-Glo, 72 h; type: cell-based, mouse
Excerpt: as §1
(§3) In this example, solutions of the test compound at different concentrations (0.000508 μM, 0.00152 μM, 0.00457 μM, 0.0137 μM, 0.0411 μM, 0.123 μM, 0.370 μM, 1.11 μM, 3.33 μM, 10 μM) were added to the above cells. […]

[3] = test system: BaF3-TEL-VEGFR2 (stably expressing VEGFR2 kinase); assay: Growth of BaF3-TEL-VEGFR2 cells, Cell Titer-Glo, 72 h; type: cell-based, mouse
Excerpt: as §1, §3

[4] = test system: pulmonary arterial hypertension (PAH); assay: Rat model of pulmonary arterial hypertension (PAH), monocrotaline-induced; type: in vivo; settings: for mPAP, difference as compared with the vehicle group: p<0.001
Description: SCXK (SU) 2017-0001. These rats were fed with conventional pellet feeds (Jiangsu Xietong Bio. Co., Ltd.), and were raised in a clean animal room with 12h/12h light/dark cycle. The rats were fed with foods and drinking water on an ad libitum basis. The temperature was maintained at 20-26° C., and the relative humidity was 40-70%. 120 SD rats were divided into 24 cages with 5 rats per group. […] The animals were treated in strict accordance with animal ethics regulations throughout the experiment. According to the method described in “Pharmaceutical experimental animal models: Fabrication and application” and the Standard Operating Procedure for PAH Model Construction of Model Animal Center, rats were intraperitoneally injected with a solution of 1% monocrotaline (MCT, purchased from Sigma, U.S.A.) once at a dose of 35 mg/kg. On Day 7 after the first injection of MCT, MCT was injected again at a dose of 20 mg/kg. The rats in the normal control group were intraperitoneally injected with an equivalent amount of water as a blank solvent. The specific steps were as follows: After the rats in each of the cages were fasted for 8 hours, each of the rats was weighed and recorded for the basic body weight after fasting; based on the measured basic body weight for each of the rats, the amount of MCT required to be injected for each of the rats was calculated according to the modeling dose of 35 mg/kg; based on the amount of MCT required to be injected for each of the rats, the dose for injection of a 1% MCT solution was calculated; the rats were fixed in a holder and intraperitoneally injected with the 1% MCT solution at the calculated dose; the rats were returned to the cages for routine feeding after the injection. […] The blood gas analyzer was operated following the standard operation procedure. […] Each of the rats was administered by gavage once a day starting from the day of regrouping at Week 4. The rats in the negative control group were daily administered by gavage with an equal volume of methylcellulose as vehicle. The rats in each of the groups were administered by gavage for consecutive 4 weeks (i.e., 28 days). […] The rats were weighed after fasting overnight twice a week. The administration dosage was calculated based on the weighing results. […] After the rats were under anesthesia, the pulmonary arterial pressure and the right ventricular systolic pressure of rats were measured. […] The steps were as follows. A No. 3.5 umbilical vein catheter was connected to a system pressure transducer. A formulated solution of […] sodium (purchased from Sangon) was filled into the transducer and the catheter, and bubbles were discharged. The anesthetized rat was placed on a surgical anatomical plate that is adjustable in its temperature. The temperature of the plate was adjusted to be maintained at about 37° C. The rat was fixed in supine position. The neck skin was cut with scissors to the edge of the clavicle, followed by blunt dissection of subcutaneous tissues and muscles, exposing the right external jugular vein. The adipose tissue on the surface was removed with ophthalmic surgical scissors. The external jugular vein was ligated at the […] surgical thread, and a loose knot was made at the proximal end for reserve. The external jugular vein was gently lifted with ophthalmic tweezers and cut with ophthalmic scissors to make a “V” opening. The catheter was quickly inserted, and the loose knot at the proximal end was tightened slightly to prevent bleeding. […] The catheter was further inserted slowly forward, and entered into the pulmonary artery at about 5 cm. […] The blood was transferred into an anticoagulation tube, and loaded in a blood gas analyzer to determine the indexes of partial pressure of oxygen (pO2), partial pressure of carbon dioxide (pCO2) and blood oxygen saturation (SaO2) in the blood.

[5] = 45 mg/kg by gavage, 28 days, P<0.001
[6] = high-dose group (45 mg/kg), P<0.001
[7] = medium-dose group (30 mg/kg), P<0.01

Cc1ccc(NC(=O)c2cccc(C(F)(F)F)n2)cc1-n1cc(-c2cncc(N3CCN(C)CC3)c2)cn1 [Compound 1, N-(4-methyl-3-(4-(5-(4-methylpiperazin-1-yl)pyridin-3-yl)-1H-pyrazol-1-yl)phenyl)-6-(trifluoromethyl)picolinamide]
GI50 (BaF3): 4.08 µM | GI50 [1]: 0.43 µM | GI50 ([2]; BaF3-TEL-cKIT cells, 72 hours): 5.34 µM | inhibitory effect against cKIT (in words) ([2]; summary of Table 2): no inhibitory effect, or a relatively weak inhibitory effect | GI50 ([3]; BaF3-TEL-VEGFR2 cells, 72 hours): 4 µM | inhibitory effect against VEGFR2 (in words) ([3]; summary of Table 2): no inhibitory effect, or a relatively weak inhibitory effect | mPAP, difference as compared with the vehicle group ([4]; 15 mg/kg by gavage, 28 days): extremely significantly different | RVSP, difference as compared with the groups of imatinib and bosentan ([4]; 30 mg/kg by gavage, 28 days): no significant difference | mPAP, difference as compared with the groups of bosentan and imatinib ([4]; 30 mg/kg by gavage, 28 days): no significant difference | RVSP, difference as compared with the vehicle group ([4]; 30 mg/kg by gavage, 28 days, P<0.001): extremely significantly different | mPAP, difference as compared with the vehicle group ([4]; 30 mg/kg by gavage, 28 days): extremely significantly different | RVI, difference as compared with the groups of imatinib and bosentan ([4]; 45 mg/kg by gavage, 28 days): no significant difference | RVSP, difference as compared with the groups of imatinib and bosentan ([4]; 45 mg/kg by gavage, 28 days): no significant difference | mPAP, difference as compared with the groups of bosentan and imatinib ([4]; 45 mg/kg by gavage, 28 days): no significant difference | RVI, difference as compared with the vehicle group [4, 5]: extremely significantly different | RVSP, difference as compared with the vehicle group [4, 5]: extremely significantly different | mPAP, difference as compared with the vehicle group ([4]; 45 mg/kg by gavage, 28 days): extremely significantly different | partial pressure of carbon dioxide (pCO2), difference as compared with the vehicle group [4, 6]: extremely significantly different | partial pressure of oxygen (pO2), difference as compared with the vehicle group [4, 6]: extremely significantly different | blood oxygen saturation (SaO2), difference as compared with the vehicle group ([4]; high-dose group (45 mg/kg), p<0.05): significantly different | RVI decrease as compared with the negative control group ([4]; high-dose group, 45 mg/kg by gavage, 28 days): 29.6% | RVI decrease as compared with the negative control group ([4]; low-dose group, 15 mg/kg by gavage, 28 days): 5.5% | partial pressure of carbon dioxide (pCO2), difference as compared with the vehicle group [4, 7]: extremely significantly different | partial pressure of oxygen (pO2), difference as compared with the vehicle group [4, 7]: extremely significantly different | RVI decrease as compared with the negative control group ([4]; medium-dose group, 30 mg/kg by gavage, 28 days): 9.4%
